Tested on: HMC3-MHCII^Luc cells
Assay: RNAseq differential gene expression / GSEA in AAT-treated resting and IFNγ-activated microglia
Type: cell-based, human
Description: • A) Human microglial HMC3-MHCII^Luc cells were plated at day 0, presented IFNγ at day 1 until day 2 and measurement of the luciferase activity and cell viability were done at day 4. • B) AATs were applied from day 0 to day 4 on HMC3-MHCII^Luc cells. Activation was measured by the activity of MHCII-driven luciferase and represented as percentage of IFNγ control for all conditions. All conditions were performed in triplicates, error bars represent standard deviation. • C) Bulk RNA extraction was performed on the same HMC3-MHCII^Luc cultures. Quality control (QC) were applied to RNA before sequencing. QC of the sequencing was done prior to mapping on the human genome. Mapped reads were counted, and differential gene expression was measured between the conditions (see Table 1-10). (FIGS. 3A, 3B and 3C)
RNAseq data from plasma-derived and recombinant AATs were pooled, normalized and analyzed through Gene Set Enrichment Analysis (GSEA) (https://www.gsea-msigdb.org/gsea/index.jsp; Subramanian, A., et al. Proc. Natl. Acad. Sci. USA, 102 (43): 15545-15550, 2005.). […] Importantly, both the IFNγ and inflammatory responses were dampened by AAT. However, the downregulation of the inflammatory response genes in (C) was just under significance.
Tables of genes related to antigen presentation (Table 1), cytokine signaling (Table 2), interferon signaling (Table 3) and complement activation (Table 4). Inflammatory top gene (FC>2; p-value<0.05; left column), were defined by differential expression between untreated and IFNγ-treated cells (inflammation; middle column).
HMC3-MHCII^Luc and HMC3-MHCII^Luc; Ubi^AAT (endogenous AAT) cell lines were seeded into 96-well plates at a density of approximately 2500 cells/well. HMC3-MHCII^Luc cell line was plated and was added plasma-derived AAT and recombinant AATs (produced in CHO cells, AAT 1 and AAT 2) 3h later and at ranged concentration (1; 10 or 25 μM). 24h after, still in the presence of exogenous or endogenous AAT, microglial activation was induced with a 24h-long IFNγ presentation (10 ng/ml). IFNγ was then removed and both HMC3-MHCII^Luc and HMC3-MHCII^Luc; Ubi^AAT cells were cultured for 48h in exogenous or endogenous presence of AAT before cell cultures were beeing assessed for cell viability and activation (See FIGS. 3A, 3B, 3C and 4A,4B, 4C).
RNA samples from plasma-derived AAT and recombinant AAT Nr. 2 were checked for quality (2100 Bioanalyzer, Agilent) and libraries prepared with Truseq RNA Library Kit (Illumina, RS-122-2001). Libraries were sequenced (HiSeq 4000, Illumina) controlled for the quality of sequencing (FastQC), mapped on the human genome (STAR v.2.7.0f; UCSC hg38), reads were counted (HTSeq v0.9.1) and the differential expression analysis was performed with the R/Bioconductor package (edgeR 1.30.1.).

[1] = AAT (left block), GBS risk gene
[2] = AAT, resting microglia, AD risk gene
[3] = AAT, resting microglia, MCT*/PN risk gene
[4] = AAT, resting microglia, MS risk gene
[5] = AAT, resting microglia, PD risk gene
[6] = FC AAT, resting microglia, M2 gene

## alpha1-antitrypsin (AAT) protein
[1]
  CDC42 expression FC AAT: −1.35
  FOS expression FC AAT: −2.31
  GLRX5 expression FC AAT: 1.12
  GUK1 expression FC AAT: 1.57
  HAGH expression FC AAT: 1.40
  HMGB2 expression FC AAT: −1.20
  MARCKS expression FC AAT: −2.06
  PKN2 expression FC AAT: −1.47
  SENP6 expression FC AAT: −1.47
  SMCHD1 expression FC AAT: −1.39
  ZNF12 expression FC AAT: −1.26
AAT treatment in absence or presence of IFNγ, pooled plasma-derived and recombinant AAT RNAseq data
  IFNγ and inflammatory responses (GSEA gene families): dampened
[2]
  ABCA7 expression FC: 1.75
  APOE expression FC: 1.74
  BIN1 expression FC: 1.33
  CD2AP expression FC: −1.39
  CLU expression FC: −1.30
  PICALM expression FC: −1.48
  PSEN2 expression FC: 1.45
  TREM2 expression FC: 2.22
[3]
  ARHGEF10 expression FC: 1.19
  CCT5 expression FC: −1.17
  DNAJB2* expression FC: 1.39
  DST expression FC: −1.35
  DYNC1H1* expression FC: −1.40
  FIG4* expression FC: −1.42
  GAN* expression FC: −1.21
  GARS* expression FC: −1.21
  GDAP1* expression FC: −1.54
  GNB4* expression FC: −1.56
  HSPB1* expression FC: 1.67
  IFRD1 expression FC: 1.23
  IGHMBP2* expression FC: 1.39
  KIF1A expression FC: 2.76
  KIF1B* expression FC: −1.21
  LRSAM1* expression FC: 1.36
  MTMR2* expression FC: −1.36
  PLEKHG5* expression FC: 1.49
  SBF2 expression FC: −1.20
  SCN9A expression FC: −1.50
  SCN11A expression FC: 4.49
  SETX expression FC: −1.23
  SPTLC1 expression FC: −1.23
  TFG* expression FC: −1.28
  TRIM2* expression FC: −1.39
  TRPV4* expression FC: 1.92
  WNK1 expression FC: −1.14
[4]
  AGAP2 expression FC: 1.30
  AHI1 expression FC: −1.46
  CBLB expression FC: −1.24
  CD40 expression FC: 1.17
  CD58 expression FC: −1.61
  CDC37 expression FC: 1.26
  CYP24A1 expression FC: 2.55
  EXTL2 expression FC: −1.76
  HLA-A expression FC: 1.48
  HLA-DRB1 expression FC: −1.47
  METTL1 expression FC: 1.22
  MPV17L2 expression FC: 1.31
  PTGER4 expression FC: −1.29
  PTPRK expression FC: −1.38
  RPS6KB1 expression FC: −1.23
  SLC30A7 expression FC: −1.77
[5]
  ATP13A2 expression FC: 1.42
  DNAJC6 expression FC: −1.14
  DNAJC13 expression FC: −1.37
  GIGYF2 expression FC: −1.16
  LRP10 expression FC: 1.29
  LRRK2 expression FC: −3.98
  PLA2G6 expression FC: 1.55
  SYNJ1 expression FC: −1.33
  TMEM230 expression FC: −1.42
  VPS13C expression FC: −1.41
  VPS35 expression FC: −1.42
[6]
  ACAN expression FC: 1.37
  AP2A2 expression FC: 1.26

From patent US20260028390A1, “ALPHA1-ANTITRYPSIN FOR USE IN THE TREATMENT OF DISEASES OR DISORDERS OF THE NERVOUS SYSTEM SUCH AS CHRONIC INFLAMMATORY DEMYELINATING POLYNEUROPATHY” (Ageronix SA, priority 2022, published 2026)
